Experimental data: ChEMBL document CHEMBL5380795, “Design, Synthesis, and Bioactivity Investigation of Cyclic Lipopeptide Antibiotics Containing Eight to Nine Amino Acids” (J Med Chem, 2023)
Values after ≈ are worked out from the molar mass of the structure shown.

How the values were obtained:
[1] = test system: Staphylococcus epidermidis; assay: Antibacterial activity against methicillin resistant Staphylococcus epidermidis clinical isolate 19-6 assessed as inhibition of bacterial growth incubated for 18 to 24 hrs by broth microdilution method; assay type: functional; details: time 18-24 hrs
Klebsiella pneumoniae [2] = assay: Antibacterial activity against carbapenem resistant Klebsiella pneumoniae clinical isolate 19-15 assessed as inhibition of bacterial growth incubated for 18 to 24 hrs by broth microdilution method; assay type: functional; details: time 18-24 hrs
Acinetobacter baumannii [3] = assay: Antibacterial activity against carbapenem resistant Acinetobacter baumannii clinical isolate 19-8 assessed as inhibition of bacterial growth incubated for 18 to 24 hrs by broth microdilution method; assay type: functional; details: time 18-24 hrs
[4] = test system: Staphylococcus epidermidis; assay: Antibacterial activity against methicillin resistant Staphylococcus epidermidis clinical isolate 19-5 assessed as inhibition of bacterial growth incubated for 18 to 24 hrs by broth microdilution method; assay type: functional; details: time 18-24 hrs
Klebsiella pneumoniae [5] = assay: Antibacterial activity against carbapenem resistant Klebsiella pneumoniae clinical isolate 19-17 assessed as inhibition of bacterial growth incubated for 18 to 24 hrs by broth microdilution method; assay type: functional; details: time 18-24 hrs
Escherichia coli [6] = assay: Antibacterial activity against Escherichia coli ATCC BAA-2523 assessed as inhibition of bacterial growth incubated for 18 to 24 hrs by broth microdilution method; assay type: functional; details: time 18-24 hrs
Staphylococcus aureus [7] = assay: Antibacterial activity against Staphylococcus aureus ATCC 29213 assessed as inhibition of bacterial growth incubated for 18 to 24 hrs by broth microdilution method; assay type: functional; details: time 18-24 hrs
Escherichia coli [8] = assay: Antibacterial activity against Escherichia coli clinical isolate 19-2 assessed as inhibition of bacterial growth incubated for 18 to 24 hrs by broth microdilution method; assay type: functional; details: time 18-24 hrs
[9] = Cytotoxicity against human HK-2 cells assessed as inhibition of cell growth incubated for 72 hrs by CCK-8 assay; assay type: toxicity, cell-based
Pseudomonas aeruginosa [10] = assay: Antibacterial activity against Pseudomonas aeruginosa ATCC 27853 assessed as inhibition of bacterial growth incubated for 18 to 24 hrs by broth microdilution method; assay type: functional; details: time 18-24 hrs
Pseudomonas aeruginosa [11] = assay: Antibacterial activity against carbapenem resistant Pseudomonas aeruginosa clinical isolate 19-3 assessed as inhibition of bacterial growth incubated for 18 to 24 hrs by broth microdilution method; assay type: functional; details: time 18-24 hrs
Pseudomonas aeruginosa [12] = assay: Antibacterial activity against carbapenem resistant Pseudomonas aeruginosa clinical isolate 17-1 assessed as inhibition of bacterial growth incubated for 18 to 24 hrs by broth microdilution method; assay type: functional; details: time 18-24 hrs
Staphylococcus aureus [13] = assay: Antibacterial activity against methicillin resistant Staphylococcus aureus ATCC 33591 assessed as inhibition of bacterial growth incubated for 18 to 24 hrs by broth microdilution method; assay type: functional; details: time 18-24 hrs
Escherichia coli [14] = assay: Antibacterial activity against KPC producing Escherichia coli ATCC BAA-2340 assessed as inhibition of bacterial growth incubated for 18 to 24 hrs by broth microdilution method; assay type: functional; details: time 18-24 hrs
Pseudomonas aeruginosa [15] = assay: Antibacterial activity against Pseudomonas aeruginosa clinical isolate 19-1 assessed as inhibition of bacterial growth incubated for 18 to 24 hrs by broth microdilution method; assay type: functional; details: time 18-24 hrs
[16] = Selectivity index, ratio of IC50 for cytotoxicity against human HK-2 cells to MIC for antibacterial activity against Escherichia coli ATCC BAA-2523; assay type: toxicity, cell-based
Klebsiella pneumoniae [17] = assay: Antibacterial activity against KPC producing Klebsiella pneumoniae ATCC BAA-1705 assessed as inhibition of bacterial growth incubated for 18 to 24 hrs by broth microdilution method; assay type: functional; details: time 18-24 hrs
Escherichia coli [18] = assay: Antibacterial activity against Escherichia coli NCTC 13353 assessed as inhibition of bacterial growth incubated for 18 to 24 hrs by broth microdilution method; assay type: functional; details: time 18-24 hrs
Acinetobacter baumannii [19] = assay: Antibacterial activity against oxacillinase-27 producing Acinetobacter baumannii NCTC 13304 assessed as inhibition of bacterial growth incubated for 18 to 24 hrs by broth microdilution method; assay type: functional; details: time 18-24 hrs

Row | SMILES | MIC [1] [µg/mL] | MIC (Klebsiella pneumoniae [2]) [µg/mL] | MIC (Acinetobacter baumannii [3]) [µg/mL] | MIC [4] [µg/mL] | MIC (Klebsiella pneumoniae [5]) [µg/mL] | MIC (Escherichia coli [6]) [µg/mL] | MIC (Staphylococcus aureus [7]) [µg/mL] | MIC (Escherichia coli [8]) [µg/mL] | IC50 at 72 h [9] [µg/mL] | MIC (Pseudomonas aeruginosa [10]) [µg/mL] | MIC (Pseudomonas aeruginosa [11]) [µg/mL] | MIC (Pseudomonas aeruginosa [12]) [µg/mL] | MIC (Staphylococcus aureus [13]) [µg/mL] | MIC (Escherichia coli [14]) [µg/mL] | MIC (Pseudomonas aeruginosa [15]) [µg/mL] | selectivity ratio [16] | MIC (Klebsiella pneumoniae [17]) [µg/mL] | MIC (Escherichia coli [18]) [µg/mL] | MIC (Acinetobacter baumannii [19]) [µg/mL]
1 | CCCCCCCCCC(=O)N[C@H](CCN)C(=O)N[C@H]1CCNC(=O)[C@H](CC(C)C)NC(=O)[C@H](CCN)NC(=O)[C@H](CCN)NC(=O)[C@H](CC(C)C)NC(=O)[C@@H](CC(C)C)NC(=O)[C@H](CCN)NC1=O | 8 (≈ 8.05 µM) | 8 (≈ 8.05 µM) | 4 (≈ 4.02 µM) | 2 (≈ 2.01 µM) | 16 (≈ 16.1 µM) | 16 (≈ 16.1 µM) | 32 (≈ 32.2 µM) | 16 (≈ 16.1 µM) | 53.5 (≈ 53.8 µM) | 1 (≈ 1.01 µM) | 8 (≈ 8.05 µM) | 2 (≈ 2.01 µM) | 64 (≈ 64.4 µM) | 4 (≈ 4.02 µM) | 2 (≈ 2.01 µM) | 3.3 | 2 (≈ 2.01 µM) | 16 (≈ 16.1 µM) | 8 (≈ 8.05 µM)
2 | CCCCCCCCCC(=O)N[C@H](CCN)C(=O)N[C@H]1CCNC(=O)[C@H]([C@@H](C)O)NC(=O)[C@H](CCN)NC(=O)[C@H](CCN)NC(=O)[C@H](CC(C)C)NC(=O)[C@@H](Cc2ccc(Cl)cc2)NC(=O)[C@H](CCN)NC1=O | 4 (≈ 3.81 µM) | 2 (≈ 1.9 µM) | 32 (≈ 30.5 µM) | 0.5 (≈ 0.476 µM) | 2 (≈ 1.9 µM) | 1 (≈ 0.952 µM) | 8 (≈ 7.61 µM) | 1 (≈ 0.952 µM) | 48.1 (≈ 45.8 µM) | 0.5 (≈ 0.476 µM) | 0.5 (≈ 0.476 µM) | 1 (≈ 0.952 µM) | 16 (≈ 15.2 µM) | 1 (≈ 0.952 µM) | 0.5 (≈ 0.476 µM) | 48.1 | 0.5 (≈ 0.476 µM) | 2 (≈ 1.9 µM) | 8 (≈ 7.61 µM)
3 | CC(C)C[C@@H]1NC(=O)[C@@H](CC(C)C)NC(=O)[C@H](CCN)NC(=O)[C@@H](NC(=O)[C@@H](CCN)NC(=O)CCCCCC(C)(C)C)CCNC(=O)[C@H]([C@@H](C)O)NC(=O)[C@H](CCN)NC(=O)[C@H](CCN)NC1=O | > 64 | 64 (≈ 65.2 µM) | > 64 | 8 (≈ 8.14 µM) | > 64 | 32 (≈ 32.6 µM) | > 64 | 32 (≈ 32.6 µM) | 40.4 (≈ 41.1 µM) | 2 (≈ 2.04 µM) | 8 (≈ 8.14 µM) | 8 (≈ 8.14 µM) | > 64 | 16 (≈ 16.3 µM) | 2 (≈ 2.04 µM) | 1.3 | 32 (≈ 32.6 µM) | 32 (≈ 32.6 µM) | > 64
